Measurements published in patent publication US10501451B2, “Selective NR2B antagonists” (BRISTOL-MYERS SQUIBB COMPANY, priority 2015, dated 2019).

How the values were obtained:
[1] = molecular target: brain-resident NR2B-subtype receptors (Mus musculus (Mouse), UniProt P35438+Q01097); assay: Ex vivo occupancy assay; type: in vivo; settings: animals after dosing
Procedure: Ex Vivo Occupancy Assay. […] 7-9 weeks old male CD-1 mice were dosed intravenously in a vehicle consisting of 10% dimethylacetamide, 40% PEG-400, 30% hydroxypropyl betacyclodextrin, and 30% water with experimental compounds and the forebrains were harvested 15 minutes post-dosing by decapitation. The brain samples were immediately snap-frozen and stored at −80° C. On the following day, the dosed brain samples were thawed on ice for 15-20 minutes followed by homogenization using Polytron for 10 seconds in cold homogenization buffer composed of 50 mM KH2PO4 (pH adjusted to 7.4 with KOH), 1 mM EDTA, 0.005% Triton X 100 and protease inhibitor cocktail (Sigma Aldrich). The crude homogenates were further homogenized using a Dounce homogenizer and the homogenized membrane aliquots from all animals were flash-frozen and stored at −80° C. until further use. The whole homogenization process was performed on ice. For determining occupancy, the membrane homogenates were first thawed on ice and then needle-homogenized using a 25 gauge needle. The homogenized membrane (6.4 mg/ml) was added to a 96-well plate followed by addition of ^3H Ro 25-6981 (6 nM). The reaction mixture was incubated for 5 minutes on a shaker at 4° C. and then harvested onto GF/B filter plates (treated with 0.5% PEI for 1 hr at room temperature). The filter plates were dried at 50° C. for 20 mins, incubated with microscint 20 for 10 minutes and read on TopCount (Perkin Elmer). Each dose or compound group consisted of 4-5 animals. The control group of animals was dosed with vehicle alone. Membrane from each animal was added in triplicates to the assay plate. Non-specific binding was determined using 10 μM Ro 25-6981 added to the wells containing membrane homogenates from vehicle-dosed animals. Specific counts/minute was converted to % occupancy at each dose of a compound for each animal using the following equation: […]
Drug levels were determined by mass spectroscopy in the usual manner. Drug levels in the blood plasma were 572 nM in at this dose, and drug levels in the homogenized brain tissue were 863 nM.

[2] = molecular target: NR2B-subtype NMDA receptors (Rattus norvegicus (Rat), UniProt P35439+Q00960); assay: Radioligand binding assay (3H Ro 25-6981 competition, rat forebrain membranes); settings: 3H Ro 25-6981 (4 nM), P-2, read-out: NR2B Binding Ki
Sequence of NR2B-subtype NMDA receptors (Q00960 27-1482, other chains not shown): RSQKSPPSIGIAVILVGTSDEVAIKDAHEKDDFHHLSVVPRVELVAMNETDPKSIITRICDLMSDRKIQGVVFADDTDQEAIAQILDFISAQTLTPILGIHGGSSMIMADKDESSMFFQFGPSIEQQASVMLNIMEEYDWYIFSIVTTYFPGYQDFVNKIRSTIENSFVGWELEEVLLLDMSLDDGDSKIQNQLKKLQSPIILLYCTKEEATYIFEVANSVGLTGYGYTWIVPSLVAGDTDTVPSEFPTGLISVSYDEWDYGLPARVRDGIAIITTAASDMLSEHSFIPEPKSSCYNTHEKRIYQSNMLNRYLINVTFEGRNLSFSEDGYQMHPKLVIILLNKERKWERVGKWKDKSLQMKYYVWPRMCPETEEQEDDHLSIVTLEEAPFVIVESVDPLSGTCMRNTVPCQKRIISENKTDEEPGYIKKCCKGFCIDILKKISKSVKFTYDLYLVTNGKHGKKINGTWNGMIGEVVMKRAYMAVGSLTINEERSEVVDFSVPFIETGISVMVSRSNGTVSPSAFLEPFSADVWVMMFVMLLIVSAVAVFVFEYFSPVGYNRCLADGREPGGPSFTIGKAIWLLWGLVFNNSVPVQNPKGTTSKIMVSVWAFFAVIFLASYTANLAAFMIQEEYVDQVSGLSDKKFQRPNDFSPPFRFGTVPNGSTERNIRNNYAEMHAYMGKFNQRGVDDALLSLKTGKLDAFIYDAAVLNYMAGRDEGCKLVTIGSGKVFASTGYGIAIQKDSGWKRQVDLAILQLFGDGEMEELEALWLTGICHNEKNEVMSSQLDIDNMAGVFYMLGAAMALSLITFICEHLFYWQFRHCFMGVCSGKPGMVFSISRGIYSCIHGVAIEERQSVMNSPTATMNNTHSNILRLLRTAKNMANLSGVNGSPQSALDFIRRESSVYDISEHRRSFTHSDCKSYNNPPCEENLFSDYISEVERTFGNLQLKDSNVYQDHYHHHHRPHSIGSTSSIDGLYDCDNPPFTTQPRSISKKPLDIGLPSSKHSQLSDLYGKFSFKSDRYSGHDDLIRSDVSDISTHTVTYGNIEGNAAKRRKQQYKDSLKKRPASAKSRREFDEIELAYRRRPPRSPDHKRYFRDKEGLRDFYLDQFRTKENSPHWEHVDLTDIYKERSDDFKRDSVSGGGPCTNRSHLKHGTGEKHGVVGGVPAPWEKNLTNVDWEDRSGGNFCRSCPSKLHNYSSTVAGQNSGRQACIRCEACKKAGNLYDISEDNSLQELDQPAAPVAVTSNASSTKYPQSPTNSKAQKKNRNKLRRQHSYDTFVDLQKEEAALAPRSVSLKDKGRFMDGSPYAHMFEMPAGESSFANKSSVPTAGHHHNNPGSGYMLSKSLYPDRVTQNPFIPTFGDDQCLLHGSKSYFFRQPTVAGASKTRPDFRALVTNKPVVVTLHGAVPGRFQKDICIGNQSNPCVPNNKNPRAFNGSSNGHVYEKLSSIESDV
Procedure: Radioligand Binding Assay. Binding experiments to determine binding to NR2B-subtype NMDA receptors were performed on forebrains of 8-10 weeks old male Sprague Dawley rats (Harlan, Netherlands) using ^3H Ro 25-6981 (Mutel V; Buchy D; Klingelschmidt A; Messer J; Bleuel Z; Kemp J A; Richards J G. Journal of Neurochemistry, 1998, 70(5):2147-2155. Rats were decapitated without anesthesia using a Guillotine (approved by animal ethics committee) and the harvested brains were snap-frozen and stored at −80° C. for 3-6 months for membrane preparation.
For membrane preparation, rat forebrains were thawed on ice for 20 minutes in homogenization buffer composed of 50 mM KH2PO4 (pH adjusted to 7.4 with KOH), 1 mM EDTA, 0.005% Triton X 100 and protease inhibitor cocktail (Sigma Aldrich). Thawed brains were homogenized using a Dounce homogenizer and centrifuged at 48000×g for 20 min. The pellet was resuspended in cold buffer and homogenized again using a Dounce homogenizer. Subsequently, the homogenate was aliquoted, snap-frozen and stored at −80° C. for not more than 3-4 months.
To perform the competition binding assay, thawed membrane homogenate was added to each well of a 96-well plate (20 μg/well). The experimental compounds were serially diluted in 100% DMSO and added to each row of the assay plate to achieve desired compound concentrations, keeping the DMSO concentration in the assay plate at 1.33% of the final reaction volume. Next, ^3H Ro 25-6981 (4 nM) was added to the assay plate. After incubation for 1 hr at room temperature, the membrane bound radioligand was harvested on to GF/B filter plates (treated with 0.5% PEI for 1 hr at room temperature). The filter plates were dried at 50° C. for 20 mins, incubated with microscint 20 for 10 minutes and finally, the counts were read on TopCount (Perkin Elmer).

Sequence of brain-resident NR2B-subtype receptors (Q01097 27-1482, other chains not shown): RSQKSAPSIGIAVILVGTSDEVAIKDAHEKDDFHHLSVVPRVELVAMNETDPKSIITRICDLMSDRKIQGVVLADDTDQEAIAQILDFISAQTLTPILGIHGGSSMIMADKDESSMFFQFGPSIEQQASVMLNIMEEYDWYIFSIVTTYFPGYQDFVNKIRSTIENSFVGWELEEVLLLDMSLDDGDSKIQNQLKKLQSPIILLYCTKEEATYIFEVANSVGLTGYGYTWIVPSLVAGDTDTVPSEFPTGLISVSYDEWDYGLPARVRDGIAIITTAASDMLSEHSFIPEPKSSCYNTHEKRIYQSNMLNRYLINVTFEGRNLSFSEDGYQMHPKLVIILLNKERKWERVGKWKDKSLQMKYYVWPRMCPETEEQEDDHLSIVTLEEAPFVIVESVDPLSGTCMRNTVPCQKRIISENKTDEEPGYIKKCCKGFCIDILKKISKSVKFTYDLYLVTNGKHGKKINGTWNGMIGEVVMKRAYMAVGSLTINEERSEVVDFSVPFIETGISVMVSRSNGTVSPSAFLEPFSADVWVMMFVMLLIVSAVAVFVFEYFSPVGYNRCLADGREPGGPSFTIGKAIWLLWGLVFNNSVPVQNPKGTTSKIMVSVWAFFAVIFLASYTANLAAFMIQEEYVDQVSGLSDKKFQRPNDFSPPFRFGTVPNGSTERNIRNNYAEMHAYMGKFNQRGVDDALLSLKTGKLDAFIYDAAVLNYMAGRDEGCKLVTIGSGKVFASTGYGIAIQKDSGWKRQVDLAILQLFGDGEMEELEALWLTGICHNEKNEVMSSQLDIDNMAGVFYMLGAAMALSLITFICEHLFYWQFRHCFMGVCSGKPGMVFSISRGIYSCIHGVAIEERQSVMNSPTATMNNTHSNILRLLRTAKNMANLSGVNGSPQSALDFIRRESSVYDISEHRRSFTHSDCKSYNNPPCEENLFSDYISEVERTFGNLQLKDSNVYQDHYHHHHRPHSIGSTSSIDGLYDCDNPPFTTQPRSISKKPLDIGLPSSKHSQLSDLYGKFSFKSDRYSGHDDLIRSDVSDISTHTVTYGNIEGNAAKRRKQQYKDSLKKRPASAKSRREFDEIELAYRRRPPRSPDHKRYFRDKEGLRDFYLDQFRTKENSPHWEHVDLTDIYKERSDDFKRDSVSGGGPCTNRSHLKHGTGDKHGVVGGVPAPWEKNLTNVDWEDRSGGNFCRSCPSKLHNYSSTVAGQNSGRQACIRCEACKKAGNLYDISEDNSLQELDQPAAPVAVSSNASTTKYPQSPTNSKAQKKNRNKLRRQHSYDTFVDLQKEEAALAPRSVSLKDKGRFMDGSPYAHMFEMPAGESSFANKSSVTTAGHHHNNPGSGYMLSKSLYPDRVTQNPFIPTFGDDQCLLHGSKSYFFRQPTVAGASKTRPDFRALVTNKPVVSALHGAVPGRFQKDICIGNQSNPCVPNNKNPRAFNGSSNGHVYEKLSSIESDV

Ki [2]: 2.79 nM
SMILES: Cc1ccc(CN2OCC(N3CCC(c4ccc(O)cc4)CC3)C2=O)cc1 (single isomer, unassigned) [Example 2, P-2, 4-(4-(4-hydroxyphenyl)piperidin-1-yl)-2-(4-methylbenzyl)isoxazolidin-3-one]
occupancy of brain-resident NR2B-subtype receptors after dosing (in words) [1]: occupies brain-resident NR2B-subtype receptors
